Results published in patent US20120283293A1, “Methods of neuroprotection involving Prostaglandin E2 EP4 (PGE2 EP4) receptor activation” (The Board of Trustees of the Leland Stanford Junior …, priority 2011, published 2012).

Tested on: PKA activity in BV-2 cells
Experiment: cAMP dependent protein kinase A (PKA) activity assay in BV-2 cells
Assay type: cell-based, murine
Settings: H89 at 5 μM and 10 μM
Method: PKA activity was determined using the PKA kinase activity assay kit (Assay designs, Ann Arbor, Mich.). Cells were harvested 3 minutes after stimulation, and ELISA was carried out according to the manufacturer's instructions. Kinase activity was calculated as (sample absorbance—blank absorbance)/μg protein and normalized to the average value of vehicle.
Downstream signaling events for EP4, a […] receptor, were investigated in LPS treated BV-2 cells (see FIG. 3). […] The increase in PKA activity from EP4 receptor signaling was blocked with the PKA inhibitor H89 at doses of 5 μM and 10 μM (FIG. 3B).

O=S(=O)(NCCNC/C=C/c1ccc(Br)cc1)c1cccc2cnccc12 [H89]
AE1-329-mediated increase in PKA activity: blocked
